Data from ChEMBL document CHEMBL1135072, “Substituted N-(3,5-dichlorobenzenesulfonyl)-L-prolyl-phenylalanine analogues as potent VLA-4 antagonists” (Bioorg Med Chem Lett, 2002).

Tests used:
Integrin alpha-4/beta-1 = Integrin alpha-4/beta-1 (Homo sapiens, UniProt P05556+P13612); test: Inhibitory activity against very late antigen-4 (VLA-4) using VCAM-Ig ligand.; type: protein-complex assay
[1] = molecular target: T1, Integrin alpha-4/beta-7 (Homo sapiens) (UniProt P13612+P26010); test: Inhibition of MadCAM-Ig binding to alpha-4 beta-7 integrin at 0.1 uM; type: protein-complex assay
in vivo = settings: Sprague-Dawley, rat, plasma
[2] = Volume of distribution was reported in Sprague-Dawley rat; settings: in vivo
[3] = Plasma clearance was reported in Sprague-Dawley rat
Rattus norvegicus = species: Rattus norvegicus; test: The plasma concentration versus time curve (AUC) was determined; settings: in vivo
[4] = molecular target: T1, Integrin alpha-4/beta-7 (Homo sapiens); test: Inhibition of MadCAM-Ig binding to alpha-4 beta-7 integrin at 20 uM; type: protein-complex assay
Integrin alpha-4/beta-7 = molecular target: T2, Integrin alpha-4/beta-7 (Homo sapiens, UniProt P13612+P26010); test: Inhibition of MadCAM-Ig binding to alpha-4 beta-7 integrin; type: protein-complex assay
T2 sequence (P13612 whole entry): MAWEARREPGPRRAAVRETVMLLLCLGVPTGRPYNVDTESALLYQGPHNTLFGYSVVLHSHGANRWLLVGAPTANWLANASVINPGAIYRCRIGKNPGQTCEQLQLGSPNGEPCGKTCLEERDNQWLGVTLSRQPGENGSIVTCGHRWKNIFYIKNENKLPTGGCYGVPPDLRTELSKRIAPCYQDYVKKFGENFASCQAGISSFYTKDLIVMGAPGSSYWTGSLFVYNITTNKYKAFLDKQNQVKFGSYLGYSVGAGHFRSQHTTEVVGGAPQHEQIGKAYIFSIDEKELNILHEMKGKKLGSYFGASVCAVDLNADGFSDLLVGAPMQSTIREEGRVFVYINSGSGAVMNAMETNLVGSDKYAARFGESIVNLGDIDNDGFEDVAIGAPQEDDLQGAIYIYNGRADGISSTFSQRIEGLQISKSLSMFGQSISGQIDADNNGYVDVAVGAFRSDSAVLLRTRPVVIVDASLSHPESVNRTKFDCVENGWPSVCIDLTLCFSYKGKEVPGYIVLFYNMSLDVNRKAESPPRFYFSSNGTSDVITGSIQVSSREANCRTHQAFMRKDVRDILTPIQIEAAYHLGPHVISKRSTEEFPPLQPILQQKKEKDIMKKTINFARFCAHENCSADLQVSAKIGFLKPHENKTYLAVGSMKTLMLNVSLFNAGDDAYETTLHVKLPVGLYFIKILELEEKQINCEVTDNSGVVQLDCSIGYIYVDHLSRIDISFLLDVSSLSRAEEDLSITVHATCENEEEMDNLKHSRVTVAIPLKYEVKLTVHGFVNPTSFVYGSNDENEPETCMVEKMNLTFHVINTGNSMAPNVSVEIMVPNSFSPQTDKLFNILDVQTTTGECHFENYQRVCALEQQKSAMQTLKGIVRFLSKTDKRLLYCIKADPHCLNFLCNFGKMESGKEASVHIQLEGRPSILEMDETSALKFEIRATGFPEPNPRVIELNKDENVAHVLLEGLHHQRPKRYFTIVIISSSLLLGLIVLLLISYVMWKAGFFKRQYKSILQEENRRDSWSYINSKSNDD
T2 sequence (P26010 whole entry): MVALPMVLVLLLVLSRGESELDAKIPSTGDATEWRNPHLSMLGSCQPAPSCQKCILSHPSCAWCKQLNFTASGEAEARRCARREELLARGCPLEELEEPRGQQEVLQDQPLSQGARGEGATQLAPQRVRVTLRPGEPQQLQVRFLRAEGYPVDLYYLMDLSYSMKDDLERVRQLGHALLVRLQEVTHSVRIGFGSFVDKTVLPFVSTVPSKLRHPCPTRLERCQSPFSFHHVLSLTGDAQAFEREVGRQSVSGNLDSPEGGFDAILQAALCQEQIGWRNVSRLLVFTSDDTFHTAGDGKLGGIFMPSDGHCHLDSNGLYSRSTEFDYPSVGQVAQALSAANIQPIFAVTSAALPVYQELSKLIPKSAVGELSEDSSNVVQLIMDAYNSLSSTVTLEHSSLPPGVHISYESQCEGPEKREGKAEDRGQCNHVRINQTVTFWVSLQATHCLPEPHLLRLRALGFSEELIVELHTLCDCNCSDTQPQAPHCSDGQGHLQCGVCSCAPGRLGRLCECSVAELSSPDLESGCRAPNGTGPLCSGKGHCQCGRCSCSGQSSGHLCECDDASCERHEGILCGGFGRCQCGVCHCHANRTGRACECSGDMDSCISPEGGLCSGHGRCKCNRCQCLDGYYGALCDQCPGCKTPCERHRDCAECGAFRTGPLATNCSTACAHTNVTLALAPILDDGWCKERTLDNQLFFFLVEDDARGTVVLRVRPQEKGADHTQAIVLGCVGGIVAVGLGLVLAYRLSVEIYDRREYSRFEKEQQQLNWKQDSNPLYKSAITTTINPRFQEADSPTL

Chain of Integrin alpha-4/beta-1 (P05556 whole entry, one chain of several): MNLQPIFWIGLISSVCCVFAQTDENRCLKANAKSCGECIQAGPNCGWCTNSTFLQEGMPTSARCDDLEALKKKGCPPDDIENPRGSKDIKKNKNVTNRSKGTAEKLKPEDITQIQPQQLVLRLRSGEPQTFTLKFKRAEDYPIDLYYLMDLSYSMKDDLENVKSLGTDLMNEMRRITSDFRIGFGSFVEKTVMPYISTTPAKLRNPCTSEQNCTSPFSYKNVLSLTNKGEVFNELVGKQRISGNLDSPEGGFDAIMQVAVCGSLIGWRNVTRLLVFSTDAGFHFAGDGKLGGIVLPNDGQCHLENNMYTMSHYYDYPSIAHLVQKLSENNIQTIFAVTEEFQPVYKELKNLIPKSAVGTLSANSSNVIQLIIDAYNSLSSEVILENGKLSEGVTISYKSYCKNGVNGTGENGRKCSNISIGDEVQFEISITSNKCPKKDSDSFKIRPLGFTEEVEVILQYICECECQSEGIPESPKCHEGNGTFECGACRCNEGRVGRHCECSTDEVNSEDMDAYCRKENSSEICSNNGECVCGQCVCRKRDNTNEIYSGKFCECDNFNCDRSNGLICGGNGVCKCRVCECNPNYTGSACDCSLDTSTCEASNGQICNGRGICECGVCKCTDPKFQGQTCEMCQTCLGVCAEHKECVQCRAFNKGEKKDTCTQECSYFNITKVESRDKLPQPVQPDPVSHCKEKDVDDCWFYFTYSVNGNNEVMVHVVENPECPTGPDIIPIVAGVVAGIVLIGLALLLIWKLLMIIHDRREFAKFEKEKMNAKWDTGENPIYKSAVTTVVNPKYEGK

Row | Compound | IC50 (Integrin alpha-4/beta-1) | further results
1 | C[C@@]1(C(=O)N[C@@H](Cc2ccncc2)C(=O)O)CCCN1S(=O)(=O)c1cc(Cl)cc(Cl)c1 | 1.31 nM | inhibition [1]: 13%
2 | O=C(O)[C@H](Cc1ccc(OC(F)(F)F)cc1)NC(=O)[C@@H]1CCCN1S(=O)(=O)c1cc(Cl)cc(Cl)c1 | 0.86 nM | –
3 | O=C(O)[C@H](Cc1cccc(C(F)(F)F)c1)NC(=O)[C@@H]1CCCN1S(=O)(=O)c1cc(Cl)cc(Cl)c1 | 3.2 nM | –
4 | C[C@@]1(C(=O)N[C@@H](Cc2ccccc2F)C(=O)O)CCCN1S(=O)(=O)c1cc(Cl)cc(Cl)c1 | 1.7 nM | inhibition [1]: < 5%
5 | C[C@@]1(C(=O)N[C@@H](Cc2ccc(F)cc2)C(=O)O)CCCN1S(=O)(=O)c1cc(Cl)cc(Cl)c1 | 1.2 nM | half-life (in vivo): 72 min; Vd [2]: 1.2 L/kg; clearance [3]: 44 mL/min/kg; inhibition [1]: < 5%; plasma concentration (Rattus norvegicus): ~ 1 nM
6 | O=C(O)[C@H](Cc1ccc([N+](=O)[O-])cc1)NC(=O)[C@@H]1CCCN1S(=O)(=O)c1cc(Cl)cc(Cl)c1 | 0.3 nM | –
7 | C[C@@]1(C(=O)N[C@@H](Cc2cccs2)C(=O)O)CCCN1S(=O)(=O)c1cc(Cl)cc(Cl)c1 | 1.61 nM | inhibition [4]: 45%
8 | O=C(O)[C@H](Cc1cccc(Cl)c1)NC(=O)[C@@H]1CCCN1S(=O)(=O)c1cc(Cl)cc(Cl)c1 | 3.6 nM | –
9 | O=C(O)[C@H](Cc1cccs1)NC(=O)[C@@H]1CCCN1S(=O)(=O)c1cc(Cl)cc(Cl)c1 | 0.92 nM | IC50 (Integrin alpha-4/beta-7): 2850 nM
10 | N#Cc1ccc(C[C@H](NC(=O)[C@@H]2CCCN2S(=O)(=O)c2cc(Cl)cc(Cl)c2)C(=O)O)cc1 | 0.79 nM | –
11 | O=C(O)[C@H](Cc1cc(F)cc(F)c1)NC(=O)[C@@H]1CCCN1S(=O)(=O)c1cc(Cl)cc(Cl)c1 | 1.1 nM | –
12 | C[C@@]1(C(=O)N[C@@H](Cc2cccc(F)c2)C(=O)O)CCCN1S(=O)(=O)c1cc(Cl)cc(Cl)c1 | 0.9 nM | inhibition [1]: < 5%
13 | O=C(O)[C@H](Cc1ccccc1F)NC(=O)[C@@H]1CCCN1S(=O)(=O)c1cc(Cl)cc(Cl)c1 | 1.3 nM | –
14 | C[C@]1(C(=O)N[C@H](Cc2ccccc2)C(=O)O)CCCN1S(=O)(=O)c1cc(Cl)cc(Cl)c1 | 28400 nM | –
15 | C[C@@]1(C(=O)N[C@H](Cc2ccccc2)C(=O)O)CCCN1S(=O)(=O)c1cc(Cl)cc(Cl)c1 | 152 nM | –
16 | O=C(O)[C@H](Cc1ccccc1Cl)NC(=O)[C@@H]1CCCN1S(=O)(=O)c1cc(Cl)cc(Cl)c1 | 0.99 nM | –
17 | C[C@@]1(C(=O)N[C@@H](Cc2ccc(C#N)cc2)C(=O)O)CCCN1S(=O)(=O)c1cc(Cl)cc(Cl)c1 | 1.6 nM | inhibition [1]: 29%
18 | C[C@@]1(C(=O)N[C@@H](Cc2cccc(Cl)c2)C(=O)O)CCCN1S(=O)(=O)c1cc(Cl)cc(Cl)c1 | 1.7 nM | inhibition [1]: < 16%
19 | C[C@@]1(C(=O)N[C@@H](Cc2ccccc2)C(=O)O)CCCN1S(=O)(=O)c1cc(Cl)cc(Cl)c1 | 1 nM | IC50 (Integrin alpha-4/beta-7): 3550 nM
20 | C[C@@]1(C(=O)N[C@@H](Cc2ccccc2Cl)C(=O)O)CCCN1S(=O)(=O)c1cc(Cl)cc(Cl)c1 | 1.8 nM | inhibition [1]: < 16%
21 | O=C(O)[C@H](Cc1cccc(F)c1)NC(=O)[C@@H]1CCCN1S(=O)(=O)c1cc(Cl)cc(Cl)c1 | 0.67 nM | –

Row | Compound | IC50 (Integrin alpha-4/beta-1) | further results
22 | CCc1ccc(C[C@H](NC(=O)[C@]2(C)CCCN2S(=O)(=O)c2cc(Cl)cc(Cl)c2)C(=O)O)cc1 | 1.88 nM | inhibition [1]: 2%
23 | C[C@@]1(C(=O)N[C@@H](Cc2ccc(OC(F)(F)F)cc2)C(=O)O)CCCN1S(=O)(=O)c1cc(Cl)cc(Cl)c1 | 3.8 nM | half-life (in vivo): 54 min; Vd [2]: 1.4 L/kg; clearance [3]: 36 mL/min/kg
24 | O=C(O)[C@H](Cc1ccncc1)NC(=O)[C@@H]1CCCN1S(=O)(=O)c1cc(Cl)cc(Cl)c1 | 0.67 nM | inhibition [4]: 45%
25 | O=C(O)[C@H](Cc1cscn1)NC(=O)[C@@H]1CCCN1S(=O)(=O)c1cc(Cl)cc(Cl)c1 | 0.73 nM | IC50 (Integrin alpha-4/beta-7): 2350 nM
26 | COc1ccc(C[C@H](NC(=O)[C@]2(C)CCCN2S(=O)(=O)c2cc(Cl)cc(Cl)c2)C(=O)O)cc1 | 0.59 nM | half-life (in vivo): 36 min; Vd [2]: 1.4 L/kg; clearance [3]: 47 mL/min/kg; inhibition [1]: 16%
27 | O=C(O)[C@H](Cc1ccc(F)c(F)c1)NC(=O)[C@@H]1CCCN1S(=O)(=O)c1cc(Cl)cc(Cl)c1 | 0.48 nM | –
28 | C[C@@]1(C(=O)N[C@@H](Cc2ccc(C(F)(F)F)cc2)C(=O)O)CCCN1S(=O)(=O)c1cc(Cl)cc(Cl)c1 | 3.9 nM | inhibition [1]: 25%
29 | C[C@]1(C(=O)N[C@@H](Cc2ccccc2)C(=O)O)CCCN1S(=O)(=O)c1cc(Cl)cc(Cl)c1 | 2060 nM | –
30 | O=C(O)[C@H](Cc1ccc(F)cc1)NC(=O)[C@@H]1CCCN1S(=O)(=O)c1cc(Cl)cc(Cl)c1 | 0.48 nM | –
31 | O=C(O)[C@H](Cc1ccccn1)NC(=O)[C@@H]1CCCN1S(=O)(=O)c1cc(Cl)cc(Cl)c1 | 26.5 nM | –
32 | CC(C)(C)Oc1ccc(C[C@H](NC(=O)[C@@H]2CCCN2S(=O)(=O)c2cc(Cl)cc(Cl)c2)C(=O)O)cc1 | 0.22 nM | –
33 | O=C(O)[C@H](Cc1ccc(-c2ccccc2)cc1)NC(=O)[C@@H]1CCCN1S(=O)(=O)c1cc(Cl)cc(Cl)c1 | 0.65 nM | –
34 | O=C(O)[C@H](Cc1ccc(I)cc1)NC(=O)[C@@H]1CCCN1S(=O)(=O)c1cc(Cl)cc(Cl)c1 | 0.33 nM | –
35 | O=C(O)[C@H](Cc1ccc(Cl)cc1)NC(=O)[C@@H]1CCCN1S(=O)(=O)c1cc(Cl)cc(Cl)c1 | 0.85 nM | –
36 | C[C@@]1(C(=O)N[C@@H](Cc2ccc(Cl)cc2)C(=O)O)CCCN1S(=O)(=O)c1cc(Cl)cc(Cl)c1 | 2.3 nM | inhibition [1]: < 16%
37 | C[C@@]1(C(=O)N[C@@H](Cc2ccc(I)cc2)C(=O)O)CCCN1S(=O)(=O)c1cc(Cl)cc(Cl)c1 | 4.77 nM | inhibition [4]: 58%
38 | CCc1ccc(C[C@H](NC(=O)[C@@H]2CCCN2S(=O)(=O)c2cc(Cl)cc(Cl)c2)C(=O)O)cc1 | 0.44 nM | –
39 | O=C(O)[C@H](Cc1cccnc1)NC(=O)[C@@H]1CCCN1S(=O)(=O)c1cc(Cl)cc(Cl)c1 | 0.86 nM | IC50 (Integrin alpha-4/beta-7): 2100 nM
40 | C[C@@]1(C(=O)N[C@@H](Cc2ccc(O)cc2)C(=O)O)CCCN1S(=O)(=O)c1cc(Cl)cc(Cl)c1 | 0.86 nM | –
41 | O=C(O)[C@H](Cc1ccc(Br)cc1)NC(=O)[C@@H]1CCCN1S(=O)(=O)c1cc(Cl)cc(Cl)c1 | 0.92 nM | –
